Entries after “also recorded” stand apart in the source; their conditions may differ.
Columns and labels:
[1] = test system: TCR; assay: Functional CD3 kappa assay: TCR expression on CD4+ PBMCs from healthy donors (antibody staining); type: cell-based, human; conditions: for TCR-expression: CD4+ cells from three healthy donors, FIG. 2A
Description: (§1) Heparinized full blood was layered on room-temperature LSM (density: 1.077 g/ml, Cambrex, Verviers, Belgium). After centrifugation at 400 g at 20° C. for 30 minutes, the interphase cells were isolated. The cells were washed twice with 50 ml PBS containing 2 mM EDTA and centrifuged at 300 g for 10 minutes at 20° C. The cell-pellet was resuspended in RPMI supplemented with 10% autologous serum, Pen/Strep, Gentamycin, Pyruvate, Hepes-buffer and L-Glutamine (Cambrex).
(§2) CD3 kappa or the control peptide was solubilized in RPMI with 1% human serum albumin (HSA, Calbiochem, Schwalbach, Germany) and 100 μM β-mercaptoethanol (β-ME, Invitrogene) at 10 mg/ml. PBMCs were incubated at 10^6 cells/ml with either peptide in the same medium and stained after on wash step with PBS with various antibodies (BD).
We synthesized the resulting 42 amino acids polypeptide without the signal sequence resulting in the CD3 kappa peptide having the amino acid sequence according to SEQ ID NO:4. All following experiments were performed with freshly isolated PBMCs from healthy donors in the presence of the 42-mer CD3-kappa or of a control peptide (consisting of the same amino acid composition and length but with a random sequence). […] The control peptide had no effect on TCR expression. Concentrations up to 1 mg/ml CD3-kappa induced a maximal response after 24 h resulting in a six fold upregulation of the TCR.

[2] = test system: TCR; assay: TCR expression in PBMCs from patients recovering from T-cell toxic chemotherapy (fludarabine); type: cell-based, human
Description: as §2
CD3 zeta is synthesized at about 10% of the rate as the other CD3-complex proteins being the limiting component for a correct assembly of the CD3/TCR complex. A maximal upregulation of CD3 zeta can therefore result in a 10-fold upregulation of the TCR. The higher capability of CD3 kappa to upregulate the surface TCR expression might be explained with a reduced need of some of the CD3-complex components.

[3] = test system: PBMCs; assay: Functional CD3 kappa assay: cell surface markers and cytokine/chemokine receptors on PBMCs; type: cell-based, human; conditions: after six days; for expression of CD25 / expression of CD116: FIGS. 4a/4b
Description: as §1, §2

[4] = test system: PBMCs; assay: Protein microarrays (human cytokine micro arrays 6.1 and 7.1) of secreted factors in culture supernatant; type: cell-based; conditions: for amount of EGF in the supernatant / amount of Eotaxin-2 in the supernatant / amount of GRO in the supernatant / amount of I-309 in the supernatant / amount of IFNγ in the supernatant / amount of IL-1ra in the supernatant / amount of IL-1α in the supernatant / amount of IL-1β in the supernatant / amount of IL-3 in the supernatant / amount of IL-6 in the supernatant / amount of IL-8 in the supernatant / amount of MCP-4 in the supernatant / amount of NAP-2 in the supernatant / amount of PARC in the supernatant / amount of RANTES in the supernatant / amount of SDF-1 in the supernatant / amount of TARC in the supernatant / amount of TGFβ3 in the supernatant / amount of soluble IL-6 Receptor in the supernatant / amount of soluble TNF-Receptor II in the supernatant: FIGS. 3b and 3c
Description: All reagents were from Raybiotech (Hilden, Germany). 2 ml supernatant from cultures with 5×10^6 cells/ml was mixed with blocking buffer (BB) and pipetted to blocked human cytokine micro arrays 6.1 and 7.1. After overnight incubation, the membranes were washed three times with wash buffer I and two times with wash buffer II. Anti-cytokine antibodies were added in 2 ml BB. After incubation and wash as described above, 2 ml streptavidin-HRP was added. Again after incubation and wash as described above, detection solution was added and exposure for 18 h to X-ray films were performed.

[5] = test system: CD4; assay: Functional CD3 kappa assay: CD4 expression on PBMCs from healthy donors; type: cell-based, human; conditions: over 6 d, FIG. 2B
Description: as §1, §2
The TCR-expression level was stabilized after treatment with CD3-kappa in a majority of the CD4 cells, while untreated cells quickly converted to a low TCR expression state. Only at day 6 did the CD3-kappa treated cells show a decline in TCR expression.

[6] = peripheral blood mononuclear cells, in vitro

In the case of “SESVNISTNVNRFHTFPYCEIAEVSCRSKVRIELDLQSPESS (MISC_FEATURE: synthetic) [control peptide, reference compound]”, the TCR-expression ([1]; after 24 h) is reported as “no effect”.

“SQVSPFKIPIEELEDRVFVNCNTSIYRASSLSN CRHTSSVEE (SQVSPFKIPIEELEDRVFVNCNTSIYRASSLSNCRHTSSVEE) [CD3 kappa, 42 amino acid long synthesized peptide, splice variant of CD3 delta without the signal peptide]” was tested, and the “decreased TCR expression of patients after treatment” value ([2]; PBMCs / T lymphocytes from patients with decreased TCR expression, compared with healthy individuals) was “restored to normal levels; also recorded: increased in a statistically significant manner”, the TCR upregulation ([2]; PBMCs from patients recovering from fludarabine treatment, after 48 h treatment, FIG. 5) was 25 fold and the “concentration giving detectable TCR-upregulation” value ([1]; CD4+ cells from healthy donors, 24 h) was ≥ 0.1 mg/mL. For the same sequence, the TCR-expression ([1]; after 24 h) was “concentration dependent increase”, the “TCR expression over time” value ([1]; PBMCs / CD4 cells, over the next 6 days, FIG. 2B) was “remarkable and sustained increase; also recorded: stabilized” and the “upregulation of the TCR (maximal response)” value ([1]; PBMCs from healthy donors, up to 1 mg/ml, after 24 h) was “six”. For the same sequence, the “influence of stimulation with PMA and ionomycin on the TCR increase” value ([1]; cells stimulated with PMA and ionomycin) was “did not affect this finding”, the “TCR expression at day 6” value ([1]; day 6) was “decline” and the “expression of CD2” value ([3]; FIG. 3a) was “up-regulation”. The “expression of CD58” value ([3]; FIG. 3a) was “down regulated”, the “expression of CD127” value ([3]; FIG. 3a) was “up-regulation” and the “expression of CD2” value ([3]; FIG. 3a, listed as CD3-kappa) was “increase”. For the same sequence, the “expression of CD127” value ([3]; FIG. 3a, listed as CD3-kappa) was “increase”, the “expression of CD38” value ([3]; FIG. 4a) was “not changed” and the “expression of CD44” value ([3]; FIG. 4a) was “not changed”. The “expression of CD45RA” value ([3]; FIG. 4a) was “not changed”, the “expression of CD45RO” value ([3]; FIG. 4a) was “not changed” and the “expression of CD62L” value ([3]; FIG. 4a) was “not changed”. The “expression of CD95” value ([3]; FIG. 4a) was “not changed”, the “expression of HLA-ABC” value ([3]; FIG. 4a) was “not changed” and the “expression of HLA-DR, DP, DQ” value ([3]; FIG. 4a) was “not changed”. For the same sequence, the “expression of LAIR” value ([3]; FIG. 4a) was “not changed”, the non-T-cell markers ([3]; FIG. 4a) was “not affected” and the “expression of CCR3” value ([3]; FIG. 4b) was “up-regulation”. For the same sequence, the “expression of CCR9” value ([3]; FIG. 4b) was “up-regulation”, the “expression of CXCR1” value ([3]; FIG. 4b) was “up-regulation” and the “expression of CXCR3” value ([3]; FIG. 4b) was “slight upregulation”. For the same sequence, the “expression of CXCR4” value ([3]; FIG. 4b) was “slight upregulation”, the “expression of CCR3” value ([3]; FIG. 4b, listed as CD3-kappa) was “increase” and the “expression of CCR9” value ([3]; FIG. 4b, listed as CD3-kappa) was “increase”. For the same sequence, the “expression of CXCR1” value ([3]; FIG. 4b, listed as CD3-kappa) was “increase”, the “expression of CD25” value [3] was “up-regulation” and the “expression of CD116” value [3] was “up-regulation”. For the same sequence, the “expression of CD25” value ([3]; listed as CD3-kappa) was “increase”, the “expression of CD116” value ([3]; listed as CD3-kappa) was “increase” and the “amount of EGF in the supernatant” value [4] was “increased release”. For the same sequence, the “amount of Eotaxin-2 in the supernatant” value [4] was “increased release”, the “amount of GRO in the supernatant” value [4] was “decreased release” and the “amount of I-309 in the supernatant” value [4] was “increased release”. The “amount of IFNγ in the supernatant” value [4] was “increased release”, the “amount of IL-1ra in the supernatant” value [4] was “decreased release” and the “amount of IL-1α in the supernatant” value [4] was “increased release”. The “amount of IL-1β in the supernatant” value [4] was “increased release”, the “amount of IL-3 in the supernatant” value [4] was “increased release” and the “amount of IL-6 in the supernatant” value [4] was “increased release”. For the same sequence, the “amount of IL-8 in the supernatant” value [4] was “decreased release”, the “amount of MCP-4 in the supernatant” value [4] was “decreased release” and the “amount of NAP-2 in the supernatant” value [4] was “increased release”. The “amount of PARC in the supernatant” value [4] was “increased release”, the “amount of RANTES in the supernatant” value [4] was “decreased release” and the “amount of SDF-1 in the supernatant” value [4] was “decreased release”. The “amount of TARC in the supernatant” value [4] was “decreased release”, the “amount of TGFβ3 in the supernatant” value [4] was “increased release” and the “amount of soluble IL-6 Receptor in the supernatant” value [4] was “decreased release”. The “amount of soluble TNF-Receptor II in the supernatant” value [4] was “decreased release”, the “amount of EGF in the supernatant” value ([4]; listed as CD3-kappa) was “increased” and the “amount of Eotaxin-2 in the supernatant” value ([4]; listed as CD3-kappa) was “increased”. The “amount of GRO in the supernatant” value ([4]; listed as CD3-kappa) was “decreased”, the “amount of I-309 in the supernatant” value ([4]; listed as CD3-kappa) was “increased” and the “amount of IFNγ in the supernatant” value ([4]; listed as CD3-kappa) was “increased”. For the same sequence, the “amount of IL-1ra in the supernatant” value ([4]; listed as CD3-kappa) was “decreased”, the “amount of IL-1α in the supernatant” value ([4]; listed as CD3-kappa) was “increased” and the “amount of IL-1β in the supernatant” value ([4]; listed as CD3-kappa) was “increased”. For the same sequence, the “amount of IL-3 in the supernatant” value ([4]; listed as CD3-kappa) was “increased”, the “amount of IL-6 in the supernatant” value ([4]; listed as CD3-kappa) was “increased” and the “amount of IL-8 in the supernatant” value ([4]; listed as CD3-kappa) was “decreased”. For the same sequence, the “amount of MCP-4 in the supernatant” value ([4]; listed as CD3-kappa) was “decreased”, the “amount of NAP-2 in the supernatant” value ([4]; listed as CD3-kappa) was “increased” and the “amount of PARC in the supernatant” value ([4]; listed as CD3-kappa) was “increased”. The “amount of RANTES in the supernatant” value ([4]; listed as CD3-kappa) was “decreased”, the “amount of SDF-1 in the supernatant” value ([4]; listed as CD3-kappa) was “decreased” and the “amount of TARC in the supernatant” value ([4]; listed as CD3-kappa) was “decreased”. For the same sequence, the “amount of TGFβ3 in the supernatant” value ([4]; listed as CD3-kappa) was “increased”, the “amount of soluble IL-6 Receptor in the supernatant” value ([4]; listed as CD3-kappa) was “decreased” and the “amount of soluble TNF-Receptor II in the supernatant” value ([4]; listed as CD3-kappa) was “decreased”. The “duration of the changes in secretion” value [4, 6] was “up to eight”, the “time after addition at which the changes in secretion occur” value [4, 6] was “about 24 h” and the CD4 expression [5] was “up-regulation”.

Reference: patent US9085641B2, “Peptides regulating the surface expression of the T cell receptor” (Max-Delbruck-Centrum Fur Molekulare Medizin, priority 2006, dated 2015)
